In patent publication US12509444B2, “Compounds and methods for CD73 modulation and indications therefor” (Plexxikon Inc., priority 2019, dated 2025):

Key:
[1] = biological target: T1, Human CD73 (amino acid residues 27-549) (Homo sapiens, UniProt P21589); experiment: CD73 enzymatic assay (luciferase-based indirect assay, CellTiter-Glo); format: biochemical; conditions: 0.4 nM CD73, 150 μM AMP, 1 hour at room temperature
T1 construct: Human CD73 (amino acid residues 27-549); His tag (N); made in house; host or cells: E. coli
T1 sequence (P21589 27-549): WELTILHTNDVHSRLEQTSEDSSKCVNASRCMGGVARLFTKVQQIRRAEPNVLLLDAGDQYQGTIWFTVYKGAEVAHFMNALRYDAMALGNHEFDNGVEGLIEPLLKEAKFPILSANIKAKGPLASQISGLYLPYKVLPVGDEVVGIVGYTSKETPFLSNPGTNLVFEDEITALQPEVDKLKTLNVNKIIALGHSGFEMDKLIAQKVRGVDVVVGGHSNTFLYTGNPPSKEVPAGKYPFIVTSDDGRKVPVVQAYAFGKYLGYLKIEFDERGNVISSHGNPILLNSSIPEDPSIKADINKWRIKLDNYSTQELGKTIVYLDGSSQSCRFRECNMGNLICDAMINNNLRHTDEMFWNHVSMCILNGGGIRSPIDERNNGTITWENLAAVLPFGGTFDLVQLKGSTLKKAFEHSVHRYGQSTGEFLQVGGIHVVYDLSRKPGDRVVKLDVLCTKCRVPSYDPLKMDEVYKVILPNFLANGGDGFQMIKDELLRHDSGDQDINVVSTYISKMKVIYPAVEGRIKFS
Procedure, shortened: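 His-tagged human CD73 (27-549) from E. coli, 0.4 nM, with 150 μM AMP in 50 mM HEPES pH 7.4, 0.01% Tween 20; 1 h at room temperature. AMP remaining read by CellTiter-Glo 2.0 luminescence with 1 μM final ATP after 30 min. IC50 from nonlinear regression of % inhibition.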

human CD73 = biological target: T2, human CD73 (Homo sapiens, UniProt P21589); experiment: Inhibitor activity against CD73 in cell based assay (CD73 expressing CHO-K1 cells); conditions: CHO-K1 cells expressing human CD73, 150 μM AMP, 4 hours of incubation; read-out: CHO-K1 CELL VARIANT: CD73 IC50
T2 construct: expressed in transfected cells
T2 sequence (P21589 27-549): T1 sequence (P21589 27-549)
Procedure, shortened: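 Stably transfected CHO-K1 cells expressing human CD73 (1×10^4/well) incubated 4 h with compound (8-point 1:3 titration, top 10 μM final, 0.2% DMSO) and 150 μM AMP. Residual AMP in supernatant measured by CellTiter-Glo luminescence with 1 μM ATP after 30 min at room temperature; IC50 by nonlinear regression of percent inhibition vs high/low controls.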

SMILES	IC50 [1] [µM]	IC50 (human CD73) [µM]
CCn1cc(S(=O)(=O)N[C@H]2CC[C@H](NC(=O)O[C@@H]3CCN(c4cn[nH]c(=O)c4Cl)C3)CC2)cn1 [P-0396, (R)-1-(5-chloro-6-oxo-1,6-dihydropyridazin-4-yl)pyrrolidin-3-yl ((1r,4R)-4-((1-ethyl-1H-pyrazole)-4-sulfonamido)cyclohexyl) carbamate]	0.001 to 10	0.001 to 10
O=C(Nc1ccc(F)cc1)N[C@H]1CC[C@@H](NC(=O)O[C@@H]2CCN(c3cn[nH]c(=O)c3Cl)C2)CC1 [P-0189, (R)-1-(5-chloro-6-oxo-1,6-dihydropyridazin-4-yl)pyrrolidin-3-yl ((1s,4S)-4-(3-(4-fluorophenyl)ureido)cyclohexyl)carbamate]	0.001 to 10	0.001 to 10
O=C(NC1CCN(C(=O)Nc2ccccc2F)CC1)O[C@@H]1CCN(c2cn[nH]c(=O)c2Cl)C1 [P-0390, (R)-1-(5-chloro-6-oxo-1,6-dihydropyridazin-4-yl)pyrrolidin-3-yl (1-((2-fluorophenyl)carbamoyl)piperidin-4-yl)carbamate]	0.001 to 10	0.001 to 10
Cc1nc(C(=O)N2CCC(NC(=O)O[C@@H]3CCN(c4cn[nH]c(=O)c4Cl)C3)CC2)cs1 [P-0501, (R)-1-(5-chloro-6-oxo-1,6-dihydropyridazin-4-yl)pyrrolidin-3-yl (1-(2-methylthiazole-4-carbonyl)piperidin-4-yl)carbamate]	0.001 to 10	0.001 to 10
O=C(N[C@H]1CC[C@H](F)CC1)O[C@@H]1CCN(c2cn[nH]c(=O)c2Cl)C1 [P-0277, (R)-1-(5-chloro-6-oxo-1,6-dihydropyridazin-4-yl)pyrrolidin-3-yl ((1r,4R)-4-fluorocyclohexyl)carbamate]	0.001 to 10	0.001 to 10
O=C(NC1CCN(C(=O)Nc2cc(Cl)cc(Cl)c2)CC1)O[C@@H]1CCN(c2cn[nH]c(=O)c2Cl)C1 [P-0495, (R)-1-(5-chloro-6-oxo-1,6-dihydropyridazin-4-yl)pyrrolidin-3-yl (1-((3,5-dichlorophenyl)carbamoyl)piperidin-4-yl)carbamate]	0.001 to 10	0.001 to 10
O=C(N[C@H]1CC[C@H](NS(=O)(=O)CCC(F)(F)F)CC1)O[C@@H]1CCN(c2cn[nH]c(=O)c2Cl)C1 [P-0304, (R)-1-(5-chloro-6-oxo-1,6-dihydropyridazin-4-yl)pyrrolidin-3-yl ((1r,4R)-4-((3,3,3-trifluoropropyl)sulfonamido)cyclohexyl)carbamate]	0.001 to 10	0.001 to 10
O=C(NC1CCN(C(=O)Cc2ccccc2Br)CC1)O[C@@H]1CCN(c2cn[nH]c(=O)c2Cl)C1 [P-0420, (R)-1-(5-chloro-6-oxo-1,6-dihydropyridazin-4-yl)pyrrolidin-3-yl (1-(2-(2-bromophenyl)acetyl)piperidin-4-yl)carbamate]	0.001 to 10	0.001 to 10
CC(=O)NCC(=O)N1CCC(NC(=O)O[C@@H]2CCN(c3cn[nH]c(=O)c3Cl)C2)CC1 [P-0161, (R)-1-(5-chloro-6-oxo-1,6-dihydropyridazin-4-yl)pyrrolidin-3-yl (1-(acetylglycyl)piperidin-4-yl)carbamate]	0.001 to 10	0.001 to 10
O=C(N[C@@H]1CC[C@H](NS(=O)(=O)c2ccccc2F)C1)O[C@@H]1CCN(c2cn[nH]c(=O)c2Cl)C1 [P-0237, (R)-1-(5-chloro-6-oxo-1,6-dihydropyridazin-4-yl)pyrrolidin-3-yl ((1R,3S)-3-((2-fluorophenyl)sulfonamido)cyclopentyl)carbamate]	0.001 to 10	0.001 to 10
COC(=O)[C@H]1CC[C@H](NC(=O)O[C@@H]2CCN(c3cn[nH]c(=O)c3Cl)C2)CC1 [P-0187, methyl (1R,4r)-4-(((((R)-1-(5-chloro-6-oxo-1,6-dihydropyridazin-4-yl)pyrrolidin-3-yl)oxy)carbonyl)amino) cyclohexane-1-carboxylate]	0.001 to 10	0.001 to 10
COc1ccc(S(=O)(=O)N[C@H]2CC[C@H](NC(=O)O[C@@H]3CCN(c4cn[nH]c(=O)c4Cl)C3)CC2)cn1 [P-0252, (R)-1-(5-chloro-6-oxo-1,6-dihydropyridazin-4-yl)pyrrolidin-3-yl ((1r,4R)-4-((6-methoxypyridine)-3-sulfonamido)cyclohexyl) carbamate]	0.001 to 10	0.001 to 10
N#CCC1(NC(=O)O[C@@H]2CCN(c3cn[nH]c(=O)c3Cl)C2)CCCC1 [P-0411, (R)-1-(5-chloro-6-oxo-1,6-dihydropyridazin-4-yl)pyrrolidin-3-yl (1-(cyanomethyl)cyclopentyl) carbamate]	0.001 to 10	0.001 to 10
O=C(NC1CCCCC1)OC1CCN(c2cn[nH]c(=O)c2Cl)C1 (stereo not shown) [P-0077, 1-(5-chloro-6-oxo-1,6-dihydropyridazin-4-yl)pyrrolidin-3-yl cyclohexylcarbamate]	0.001 to 10	0.001 to 10
C[C@H]1CCCC[C@H]1NC(=O)O[C@@H]1CCN(c2cn[nH]c(=O)c2Cl)C1 [P-0279, (R)-1-(5-chloro-6-oxo-1,6-dihydropyridazin-4-yl)pyrrolidin-3-yl ((1R,2S)-2-methylcyclohexyl)carbamate]	0.001 to 10	0.001 to 10
CS(=O)(=O)NC1CCC(NC(=O)N[C@@H]2CCN(c3cn[nH]c(=O)c3Cl)C2)CC1 (stereo partly drawn) [P-0091, (R)-N-(4-(3-(1-(5-chloro-6-oxo-1,6-dihydropyridazin-4-yl)pyrrolidin-3-yl)ureido)cyclohexyl) methanesulfonamide]	0.001 to 10	0.001 to 10
O=C(NC1CCN(C(=O)Nc2ccccc2Cl)CC1)O[C@@H]1CCN(c2cn[nH]c(=O)c2Cl)C1 [P-0494, (R)-1-(5-chloro-6-oxo-1,6-dihydropyridazin-4-yl)pyrrolidin-3-yl (1-((2-chlorophenyl)carbamoyl)piperidin-4-yl)carbamate]	0.001 to 10	0.001 to 10
N#CCn1ncc(N2CC[C@@H](OC(=O)NC3CCC(F)(F)CC3)C2)c(Cl)c1=O [P-0286, (R)-1-(5-chloro-1-(cyanomethyl)-6-oxo-1,6-dihydropyridazin-4-yl)pyrrolidin-3-yl (4,4-difluorocyclohexyl)carbamate]	0.001 to 10	10 to 100
O=C(NC1CCN(C(=O)Cc2ccc(Cl)c(F)c2)CC1)O[C@@H]1CCN(c2cn[nH]c(=O)c2Cl)C1 [P-0444, (R)-1-(5-chloro-6-oxo-1,6-dihydropyridazin-4-yl)pyrrolidin-3-yl (1-(2-(4-chloro-3-fluorophenyl)acetyl)piperidin-4-yl)carbamate]	0.001 to 10	0.001 to 10
CC1(NC(=O)O[C@@H]2CCN(c3cn[nH]c(=O)c3Cl)C2)CCC(F)(F)CC1 [P-0437, (R)-1-(5-chloro-6-oxo-1,6-dihydropyridazin-4-yl)pyrrolidin-3-yl (4,4-difluoro-1-methylcyclohexyl)carbamate]	0.001 to 10	0.001 to 10
Cc1c(N2CC[C@@H](OC(=O)NC3CCC(F)(F)C3)C2)cn[nH]c1=O (stereo partly drawn) [P-0154, (R)-1-(5-methyl-6-oxo-1,6-dihydropyridazin-4-yl)pyrrolidin-3-yl (3,3-difluorocyclopentyl)carbamate]	0.001 to 10	0.001 to 10
Cc1nonc1C(=O)N1CCC(NC(=O)O[C@@H]2CCN(c3cn[nH]c(=O)c3Cl)C2)CC1 [P-0505, (R)-1-(5-chloro-6-oxo-1,6-dihydropyridazin-4-yl)pyrrolidin-3-yl (1-(4-methyl-1,2,5-oxadiazole-3-carbonyl)piperidin-4-yl)carbamate]	0.001 to 10	0.001 to 10
Cn1ncc(N2CC[C@@H](OC(=O)NC3CCC(F)(F)CC3)C2)c(Cl)c1=O [P-0202, (R)-1-(5-chloro-1-methyl-6-oxo-1,6-dihydropyridazin-4-yl)pyrrolidin-3-yl (4,4-difluorocyclohexyl)carbamate]	0.001 to 10	0.001 to 10
CC(C)(C)C1CCC(NC(=O)O[C@@H]2CCN(c3cn[nH]c(=O)c3Cl)C2)CC1 (stereo partly drawn) [P-0203, (R)-1-(5-chloro-6-oxo-1,6-dihydropyridazin-4-yl)pyrrolidin-3-yl (4-(tert-butyl)cyclohexyl)carbamate]	0.001 to 10	0.001 to 10
O=C(O)Cn1ncc(N2CC[C@@H](OC(=O)NC3CCC(F)(F)CC3)C2)c(Cl)c1=O [P-0282, (R)-2-(5-chloro-4-(3-(((4,4-difluorocyclohexyl)carbamoyl)oxy)pyrrolidin-1-yl)-6-oxopyridazin-1(6H)-yl)acetic acid]	0.001 to 10	10 to 100
C[C@H]1CC[C@@H](NC(=O)O[C@@H]2CCN(c3cn[nH]c(=O)c3Cl)C2)CC1 [P-0110, (R)-1-(5-chloro-6-oxo-1,6-dihydropyridazin-4-yl)pyrrolidin-3-yl ((1s,4S)-4-methylcyclohexyl)carbamate]	0.001 to 10	0.001 to 10
